Results from ChEMBL document CHEMBL6071136, “Discovery of macrocyclic covalent inhibitors for severe acute respiratory syndrome coronavirus 2 3CL protease” (Bioorg Med Chem, 2024).
pEC50, pIC50: −log10 of the molar value.

Legend:
[1] = Cmax in Sprague-Dawley rat at 10 mg/kg, po measured upto 24 hrs by LC/MS-MS analysis; format: ADME, organism-based; details: in vivo
[2] = Metabolic stability in rat liver microsomes assessed as half life measured upto 60 mins in presence of NADPH by LC/MS-MS analysis; format: ADME, Microsome
[3] = Apparent permeability across apical to basolateral side in human Caco-2 cells incubated for 2 hrs by LC-MS/MS analysis; format: ADME, cell-based
[4] = Half-life in Sprague-Dawley rat at 10 mg/kg, po measured upto 24 hrs by LC/MS-MS analysis; format: ADME, organism-based; details: in vivo
[5] = AUClast in Sprague-Dawley rat at 10 mg/kg, po measured upto 24 hrs by LC/MS-MS analysis; format: ADME, organism-based; details: in vivo
[6] = Metabolic stability in human liver microsomes assessed as half life measured upto 60 mins in presence of NADPH by LC/MS-MS analysis; format: ADME, Microsome
[7] = test system: SARS-CoV-2; assay: microbe, parasite or virus in culture; details: Severe acute respiratory syndrome coronavirus 2, Huh-7, 24 h
[8] = biological target: Replicase polyprotein 1ab (Severe acute respiratory syndrome coronavirus 2, UniProt P0DTD1); assay: Inhibition of SARS-CoV-2 3CL protease using Dabcyl-KTSAVLQSGFRKM-(Edans) as substrate preincubated for 30 mins followed by substrate addition and measured after 60 mins by fluorescence based microplate reader assay
[9] = Metabolic stability in human liver S9 fraction assessed as half life measured upto 60 mins by LC/MS-MS analysis; format: ADME, subcellular
[10] = Efflux ratio of apparent permeability across basolateral to apical side over apical to basolateral side in human Caco-2 cells; format: ADME, cell-based
[11] = Cmax in Sprague-Dawley rat at 50 mg/kg, po measured upto 24 hrs by LC/MS-MS analysis; format: ADME, organism-based; details: in vivo
[12] = Tmax in Sprague-Dawley rat at 50 mg/kg, po measured upto 24 hrs by LC/MS-MS analysis; format: ADME, organism-based; details: in vivo
[13] = AUClast in Sprague-Dawley rat at 50 mg/kg, po measured upto 24 hrs by LC/MS-MS analysis; format: ADME, organism-based; details: in vivo
[14] = Stability of compound in FaSSGF at 10 uM measured after 4 hrs by LC-MS analysis; format: physicochemical
[15] = Tmax in Sprague-Dawley rat at 10 mg/kg, po measured upto 24 hrs by LC/MS-MS analysis; format: ADME, organism-based; details: in vivo
[16] = Half-life in Sprague-Dawley rat at 50 mg/kg, po measured upto 24 hrs by LC/MS-MS analysis; format: ADME, organism-based; details: in vivo

Row | SMILES | Papp A→B at 2 h [3] [×10⁻⁶ cm/s] | half-life [6] [min] | pEC50 [7] | pIC50 [8] | efflux ratio [10] | further results
1 | CC(C)(C)[C@H](NC(=O)C(F)(F)F)C(=O)N1C[C@H]2[C@@H]([C@H]1C(=O)N[C@H](C#N)C[C@@H]1CCNC1=O)C2(C)C | 0.27 | 20.6 |  |  |  | Cmax [1]: 2840 ng/mL; half-life [2]: 127 min; half-life [4]: 76.2 min; AUC(0-t) at 24 h [5]: 2020 ng·h/mL
2 | CC1(C)CCCC[C@@H]2C[C@@H](C[C@@H](C#N)NC(=O)[C@@H]3[C@@H]4[C@H](CN3C(=O)[C@H]1NC(=O)C(F)(F)F)C4(C)C)C(=O)N2 |  | 4.4 | 7.08 | 8.00 |  | 
3 | CC1(C)CNC(=O)[C@@H]2C[C@@H](C[C@@H](C#N)NC(=O)[C@@H]3[C@@H]4[C@H](CN3C(=O)[C@H]1NC(=O)COc1ccc(F)cc1F)C4(C)C)C(=O)N2 |  | 6.3 | 5.81 | 7.15 |  | 
4 | CC1(C)COC(=O)[C@@H]2C[C@@H](C[C@@H](C#N)NC(=O)[C@@H]3[C@@H]4[C@H](CN3C(=O)[C@H]1NC(=O)C1CC1)C4(C)C)C(=O)N2 | 0.08 | 154 | 6.72 | 7.92 | 22 | half-life [9]: > 180 min
5 | CC1(C)COC(=O)[C@@H]2C[C@@H](C[C@@H](C#N)NC(=O)[C@@H]3[C@@H]4[C@H](CN3C(=O)[C@H]1NC(=O)C(F)(F)c1ccc(F)cc1)C4(C)C)C(=O)N2 | 0.1 | 6 | 6.89 | 7.66 | 206 | 
6 | CC1(C)CNC(=O)[C@@H]2C[C@@H](C[C@@H](C#N)NC(=O)[C@@H]3[C@@H]4[C@H](CN3C(=O)[C@H]1NC(=O)C1CC1)C4(C)C)C(=O)N2 |  | > 180 | 5.18 | 7.49 |  | 
7 | CC1(C)CCCC[C@@H]2C[C@@H](C[C@@H](C#N)NC(=O)[C@@H]3[C@@H]4[C@H](CN3C(=O)[C@H]1NC(=O)OCc1ccccc1)C4(C)C)C(=O)N2 |  |  | 7.51 | 7.57 |  | 
8 | CC1(C)COC(=O)[C@@H]2C[C@@H](C[C@@H](C#N)NC(=O)[C@@H]3[C@@H]4[C@H](CN3C(=O)[C@H]1NC(=O)CC1CC1)C4(C)C)C(=O)N2 |  | 78 | 6.51 | 7.68 |  | 
9 | COC(=O)N[C@@H]1C(=O)N2C[C@H]3[C@@H]([C@H]2C(=O)N[C@H](C#N)C[C@@H]2C[C@H](NC2=O)C(=O)OCCC1(C)C)C3(C)C | 0.03 | > 180 | 6.75 | 8.05 | 65 | 
10 | CC1(C)COC(=O)[C@@H]2C[C@@H](C[C@@H](C#N)NC(=O)[C@@H]3[C@@H]4[C@H](CN3C(=O)[C@H]1NC(=O)C(F)(F)F)C4(C)C)C(=O)N2 | 0.5 | > 180 | 6.74 | 7.47 | 34 | half-life [9]: > 180 min
11 | CC1(C)CNC(=O)[C@@H]2C[C@H](C[C@@H](C#N)NC(=O)[C@@H]3[C@@H]4[C@H](CN3C(=O)[C@H]1NC(=O)OCc1ccccc1)C4(C)C)C(=O)N2 | 0.05 |  |  | 7.92 | 103 | 
12 | COC(=O)N[C@@H]1C(=O)N2C[C@H]3[C@@H]([C@H]2C(=O)N[C@H](C#N)C[C@@H]2C[C@@H](CCCCC1(C)C)NC2=O)C3(C)C |  | 13.9 | 7.00 | 8.34 |  | 
13 | CC1(C)CCOC(=O)[C@@H]2C[C@@H](C[C@@H](C#N)NC(=O)[C@@H]3[C@@H]4[C@H](CN3C(=O)[C@H]1NC(=O)C(F)(F)F)C4(C)C)C(=O)N2 | 0.02 | > 180 | 7.59 | 7.92 | 342 | Cmax [11]: 102 ng/mL; Cmax [1]: 16.2 ng/mL; Tmax [12]: 20 min; half-life [2]: > 180 min; AUC(0-t) at 24 h [13]: 72.9 ng·h/mL; Stability [14]: Stable; Tmax [15]: 15 min; half-life [4]: 20 min; half-life [16]: 28.3 min; AUC(0-t) at 24 h [5]: 5.94 ng·h/mL
14 | CN1CC(C)(C)[C@H](NC(=O)OCc2ccccc2)C(=O)N2C[C@H]3[C@@H]([C@H]2C(=O)N[C@H](C#N)C[C@@H]2C[C@H](NC2=O)C1=O)C3(C)C | 0.17 |  | < 5.00 | < 5.00 | 12 | half-life [9]: 0.17 min
15 | Cc1cccc(C)c1OCC(=O)N[C@@H]1C(=O)N2C[C@H]3[C@@H]([C@H]2C(=O)N[C@H](C#N)C[C@@H]2C[C@H](NC2=O)C(=O)NCC1(C)C)C3(C)C | 0.13 | 4 | 5.25 | 6.49 | 64 | 
16 | CC1(C)CNC(=O)[C@@H]2C[C@H](C[C@@H](C#N)NC(=O)[C@@H]3[C@@H]4[C@H](CN3C(=O)[C@H]1NC(=O)C(F)(F)F)C4(C)C)C(=O)N2 | 0.09 | > 180 |  | 7.12 | 10 | 
17 | CC(C)(C)C(=O)N[C@@H]1C(=O)N2C[C@H]3[C@@H]([C@H]2C(=O)N[C@H](C#N)C[C@@H]2C[C@H](NC2=O)C(=O)NCC1(C)C)C3(C)C |  |  |  | 6.51 |  | 
18 | COC(=O)N[C@@H]1C(=O)N2C[C@H]3[C@@H]([C@H]2C(=O)N[C@H](C#N)C[C@@H]2C[C@H](NC2=O)C(=O)OCC1(C)C)C3(C)C | 0.16 | > 180 | 7.28 | 8.07 | 30 | Cmax [1]: 87.5 ng/mL; half-life [2]: 76.2 min; half-life [9]: > 180 min; Stability [14]: Stable; Tmax [15]: 20 min; half-life [4]: 68.4 min; AUC(0-t) at 24 h [5]: 72.9 ng·h/mL
19 | CC1(C)COC(=O)[C@@H]2C[C@@H](C[C@@H](C#N)NC(=O)[C@@H]3[C@@H]4[C@H](CN3C(=O)[C@H]1NC(=O)OC1CC1)C4(C)C)C(=O)N2 | 0.08 | > 180 | 7.17 | 7.77 | 20 | half-life [9]: > 180 min
20 | CC1(C)COC(=O)[C@@H]2C[C@@H](C[C@@H](C#N)NC(=O)[C@@H]3[C@@H]4[C@H](CN3C(=O)[C@H]1NC(=O)C(F)(F)Cc1ccccc1)C4(C)C)C(=O)N2 | 0.08 | 1.7 | 7.31 | 7.64 | 154 | 
21 | CN1CC(C)(C)[C@H](NC(=O)C(F)(F)F)C(=O)N2C[C@H]3[C@@H]([C@H]2C(=O)N[C@H](C#N)C[C@@H]2C[C@H](NC2=O)C1=O)C3(C)C |  |  | < 5.00 | < 5.00 |  | 
22 | CC1(C)COC(=O)[C@@H]2C[C@@H](C[C@@H](C#N)NC(=O)[C@@H]3[C@@H]4[C@H](CN3C(=O)[C@H]1NC(=O)OCc1ccccc1)C4(C)C)C(=O)N2 | 0.16 | 6.5 | 7.60 | 8.19 | 108 | 
23 | CC1(C)CNC(=O)[C@@H]2C[C@@H](C[C@@H](C#N)NC(=O)[C@@H]3[C@@H]4[C@H](CN3C(=O)[C@H]1NC(=O)C(F)(F)F)C4(C)C)C(=O)N2 |  | > 180 | 6.58 | 7.74 |  | 
24 | CC1(C)COC(=O)[C@@H]2C[C@@H](C[C@@H](C#N)NC(=O)[C@@H]3[C@@H]4[C@H](CN3C(=O)[C@H]1NC(=O)C(F)(F)C1CC1)C4(C)C)C(=O)N2 | 0.13 | 71 | 7.44 | 7.85 | 96.4 | Cmax [1]: 131 ng/mL; half-life [2]: 34.8 min; Tmax [15]: 20 min; half-life [4]: 38.5 min; AUC(0-t) at 24 h [5]: 119 ng·h/mL
25 | CC1(C)CNC(=O)[C@@H]2C[C@@H](C[C@@H](C#N)NC(=O)[C@@H]3[C@@H]4[C@H](CN3C(=O)[C@H]1NC(=O)OCc1ccccc1)C4(C)C)C(=O)N2 |  | 4.3 | 7.14 | 8.06 |  | half-life [2]: 4.3 min
